From PMC6934184, “Selective DNA-PKcs inhibition extends the therapeutic index of localized radiotherapy and chemotherapy” (The Journal of Clinical Investigation, 2019)

Biological target: T1, KIT T670E (Homo sapiens, UniProt P10721, T670E)
T1 construct: purchased Thermo Fisher Scientific (Life Technologies) SelectScreen
Assay: SelectScreen LanthaScreen
Type: binding
Settings: read-out: % displacement
Summary of the method: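 Percent values come from Thermo SelectScreen profiling of NU5455, combining activity and binding assays. CSF1R was run in Z'LYTE format at Km app ATP, and CAMK1 in Adapta format with ATP listed at 10.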

T1 sequence (P10721 26-976 T670E): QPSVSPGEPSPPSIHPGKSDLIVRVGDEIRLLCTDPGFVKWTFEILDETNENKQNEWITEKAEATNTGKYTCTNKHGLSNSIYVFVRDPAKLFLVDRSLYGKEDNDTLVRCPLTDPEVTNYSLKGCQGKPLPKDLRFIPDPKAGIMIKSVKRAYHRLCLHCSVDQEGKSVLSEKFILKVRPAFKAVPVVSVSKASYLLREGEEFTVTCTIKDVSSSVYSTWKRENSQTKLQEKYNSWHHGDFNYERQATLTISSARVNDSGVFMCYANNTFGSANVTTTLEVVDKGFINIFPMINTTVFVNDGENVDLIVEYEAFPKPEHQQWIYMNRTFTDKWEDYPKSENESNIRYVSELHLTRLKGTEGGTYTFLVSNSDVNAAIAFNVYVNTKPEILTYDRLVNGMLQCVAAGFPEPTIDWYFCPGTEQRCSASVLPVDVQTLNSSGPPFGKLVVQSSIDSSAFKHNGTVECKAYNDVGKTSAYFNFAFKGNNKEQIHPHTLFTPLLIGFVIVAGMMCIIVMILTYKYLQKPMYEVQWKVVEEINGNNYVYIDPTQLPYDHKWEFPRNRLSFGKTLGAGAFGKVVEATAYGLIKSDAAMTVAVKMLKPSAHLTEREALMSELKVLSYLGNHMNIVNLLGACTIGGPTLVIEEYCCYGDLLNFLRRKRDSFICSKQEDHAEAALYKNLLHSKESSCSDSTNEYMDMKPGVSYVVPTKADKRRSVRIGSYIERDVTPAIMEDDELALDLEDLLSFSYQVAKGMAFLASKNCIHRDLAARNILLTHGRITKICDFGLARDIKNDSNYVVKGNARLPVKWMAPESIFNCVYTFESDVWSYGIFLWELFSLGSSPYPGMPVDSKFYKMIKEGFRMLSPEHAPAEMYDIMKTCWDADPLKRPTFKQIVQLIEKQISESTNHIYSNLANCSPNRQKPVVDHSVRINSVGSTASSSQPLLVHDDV

CN(C(=O)CN1CCOCC1)c1ccc2sc3c(-c4cccc5c(=O)cc(N6CC7CCC(C6)O7)oc45)cccc3c2c1 [NU5455]
inhibition at 1 µM: -2.8%
